Activity calls are given as the source filed them.
How the values were obtained:
[1] = biological target: T1, Sentrin-specific protease 1 (Homo sapiens, UniProt Q9P0U3); assay: Inhibition of recombinant human SENP1 catalytic domain using RanGAP1 as substrate preincubated for 10 mins followed by substrate addition and measured after 30 mins by Western blot analysis
T1 sequence (Q9P0U3 whole entry): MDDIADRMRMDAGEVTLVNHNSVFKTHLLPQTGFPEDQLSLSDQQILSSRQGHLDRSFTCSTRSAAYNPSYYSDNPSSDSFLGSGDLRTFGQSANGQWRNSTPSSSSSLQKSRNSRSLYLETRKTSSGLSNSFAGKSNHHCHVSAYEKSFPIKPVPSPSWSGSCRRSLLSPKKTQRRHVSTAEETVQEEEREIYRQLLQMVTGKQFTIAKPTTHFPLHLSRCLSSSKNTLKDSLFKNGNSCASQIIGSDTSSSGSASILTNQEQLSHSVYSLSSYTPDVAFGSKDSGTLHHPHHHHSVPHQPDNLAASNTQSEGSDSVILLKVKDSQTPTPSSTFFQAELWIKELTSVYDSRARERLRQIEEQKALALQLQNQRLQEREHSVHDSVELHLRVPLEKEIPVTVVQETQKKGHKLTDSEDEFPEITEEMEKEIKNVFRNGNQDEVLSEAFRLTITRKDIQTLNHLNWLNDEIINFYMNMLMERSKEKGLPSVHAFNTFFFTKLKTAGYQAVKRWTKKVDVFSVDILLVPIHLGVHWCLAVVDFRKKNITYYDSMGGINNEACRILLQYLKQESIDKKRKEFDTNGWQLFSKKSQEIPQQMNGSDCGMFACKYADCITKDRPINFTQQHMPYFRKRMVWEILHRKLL

[2] = test system: HeLa; assay: Radiosensitizing activity against human HeLa cells assessed as reduction in cell survival fractions at 5 uM pretreated for 24 hrs followed by exposure to 4 to 8 Gy gamma irradiation and measured after 2 weeks by crystal violet staining based analysis; format: functional
[3] = test system: HeLa; assay: Radiosensitizing activity against human HeLa cells assessed as average lethal dose at 5 uM pretreated for 24 hrs followed by exposure to 2 to 8 Gy gamma irradiation and measured after 2 weeks by crystal violet staining based analysis (reference value: 1.47 Gy); format: functional
[4] = test system: HeLa; assay: Radiosensitizing activity against human HeLa cells assessed as quasi-threshold dose at 5 uM pretreated for 24 hrs followed by exposure to 2 to 8 Gy gamma irradiation and measured after 2 weeks by crystal violet staining based analysis (reference value: 1.72 Gy); format: functional
[5] = test system: HeLa; assay: Radiosensitizing activity against human HeLa cells assessed as radiosensitization enhancement ratio at 5 uM pretreated for 24 hrs followed by exposure to 2 to 8 Gy gamma irradiation and measured after 2 weeks by crystal violet staining based analysis (reference value: 1); format: functional
[6] = Cytotoxicity against human HeLa cells assessed as inhibition of cell growth incubated for 72 hrs by CCK-8 assay; format: toxicity, cell-based

Compound: C[C@H]1[C@H](C)CC[C@]2(C(=O)O)CC[C@]3(C)C(=CC[C@@H]4[C@@]5(C)CC[C@H](O)C(C)(C)[C@@H]5CC[C@]43C)[C@H]12 [URSOLIC ACID]
- IC50 [1]: 2.58 µM
- Activity [2]: Active
- LD [3]: 1.2 Gy
- LD [4]: 1.77 Gy
- Ratio [5]: 1.22

Compound: C[C@H]1[C@H](C)CC[C@]2(C(=O)OCC(=O)O)CC[C@]3(C)C(=CC[C@@H]4[C@@]5(C)CC[C@H](O)C(C)(C)[C@@H]5CC[C@]43C)[C@H]12
- IC50 at 72 h [6]: > 20 µM
- Activity [2]: Active
- LD [3]: 1.26 Gy
- LD [4]: 2.07 Gy

Compound: CNC(=O)CNC(=O)[C@]12CC[C@@H](C)[C@H](C)[C@H]1C1=CC[C@@H]3[C@@]4(C)CC[C@H](O)C(C)(C)[C@@H]4CC[C@@]3(C)[C@]1(C)CC2
- IC50 at 72 h [6]: > 20 µM
- Activity [2]: Active
- LD [3]: 1.02 Gy
- LD [4]: 1.92 Gy

Compound: CNC(=O)CCNC(=O)[C@]12CC[C@@H](C)[C@H](C)[C@H]1C1=CC[C@@H]3[C@@]4(C)CC[C@H](OC(C)=O)C(C)(C)[C@@H]4CC[C@@]3(C)[C@]1(C)CC2
- IC50 at 72 h [6]: > 20 µM

Compound: CC(=O)O[C@H]1CC[C@]2(C)[C@H]3CC=C4[C@@H]5[C@@H](C)[C@H](C)CC[C@]5(C(=O)NCC(N)=O)CC[C@@]4(C)[C@]3(C)CC[C@H]2C1(C)C
- IC50 at 72 h [6]: > 20 µM

Compound: COC(=O)[C@]12CC[C@@H](C)[C@H](C)[C@H]1C1=CC[C@@H]3[C@@]4(C)CC[C@H](OC=O)C(C)(C)[C@@H]4CC[C@@]3(C)[C@]1(C)CC2
- IC50 at 72 h [6]: > 20 µM

Compound: C[C@H]1[C@H](C)CC[C@]2(C(=O)OCCCCBr)CC[C@]3(C)C(=CC[C@@H]4[C@@]5(C)CC[C@H](O)C(C)(C)[C@@H]5CC[C@]43C)[C@H]12 [BROMOBUTYL-3BETA-HYDROXY-URS-12-EN-28-OATE]
- IC50 at 72 h [6]: > 20 µM

Compound: C[C@H]1[C@H](C)CC[C@]2(C(=O)OCCN3CCN(C)CC3)CC[C@]3(C)C(=CC[C@@H]4[C@@]5(C)CC[C@H](O)C(C)(C)[C@@H]5CC[C@]43C)[C@H]12
- IC50 at 72 h [6]: > 20 µM
